# Measured values published in patent US8106055B2, “Substituted amide compounds” (Gruenenthal GmbH, priority 2007, dated 2012).
# Biological target: T1, human bradykinin 1 receptor (B1R) (Homo sapiens, UniProt P46663)
# T1 construct: expressed in transfected cells; host or cells: CHO K1 cells
# T1 sequence (P46663 1-353): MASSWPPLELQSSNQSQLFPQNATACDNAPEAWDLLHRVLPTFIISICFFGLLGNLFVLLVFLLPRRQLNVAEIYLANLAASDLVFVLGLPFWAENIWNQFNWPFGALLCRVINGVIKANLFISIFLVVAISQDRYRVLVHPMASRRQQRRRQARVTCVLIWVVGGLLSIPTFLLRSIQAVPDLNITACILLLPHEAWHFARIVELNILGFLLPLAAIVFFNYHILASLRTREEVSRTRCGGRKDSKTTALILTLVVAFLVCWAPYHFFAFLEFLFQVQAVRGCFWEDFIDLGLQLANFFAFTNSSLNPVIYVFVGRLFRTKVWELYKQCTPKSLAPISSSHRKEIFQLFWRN
# Assay: Functional investigation on the human bradykinin 1 receptor (B1R), Ca2+ FLIPR assay in CHO K1 hB1R cells
# Type: cell-based
# Details: B1R antagonism human; test substance 10 μM; Ca2+ FLIPR, CHO K1 hB1R cells
# Outline: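 Stably transfected CHO K1 cells loaded with Fluo-4; FLIPR Ca2+ fluorescence peak (ex 488/em 540 nm). Compound added first (agonism vs Lys-Des-Arg9-bradykinin ≥50 nM human, Des-Arg9-bradykinin 10 μM rat), then after 10-20 min agonist at EC80; antagonism as % inhibition, IC50 from concentration series, n=2-3, N≥2.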
row,SMILES,B1R Ant. h [10 μM] % Inhibition [%]
1,COc1ccc(S(=O)(=O)N2CCC(OCC(=O)NCCC3CCC(C(c4ccc(Cl)cc4)N(C)C)CC3)C2)cc1OC (centres unmarked) [Example 338],−3
2,COc1ccc(S(=O)(=O)N(C)CCOCC(=O)NCCC2CCC(C(c3ccc(Cl)cc3)N(C)C)CC2)cc1OC (centres unmarked) [Example 339],−9
3,COc1ccc(S(=O)(=O)N(C)CCOCC(=O)NCC2CCC(C(c3cccc(F)c3)N(C)C)CC2)cc1 (centres unmarked) [Example 340],39
4,CN(C)C(c1cccs1)C1CCC(NC(=O)COCCN2CCN(S(=O)(=O)c3ccccc3)CC2)CC1 (centres unmarked) [Example 341],−1
5,CN(C)C(c1ccc(F)cc1)C1CCC(CNC(=O)COCCN(Cc2ccccc2)S(=O)(=O)c2ccccc2)CC1 (centres unmarked) [Example 342],28
6,CN(C)C(c1ccc(Cl)cc1)C1CCC(CNC(=O)COCCN(Cc2ccccc2)S(=O)(=O)c2ccccc2)CC1 (centres unmarked) [Example 343],12
7,CN(C)C(c1ccc(F)cc1)C1CCC(NC(=O)COCC2CCCN2S(=O)(=O)c2ccc(Cl)c(Cl)c2)CC1 (centres unmarked) [Example 344],65
8,COc1ccc(S(=O)(=O)N2CCCCC2COCC(=O)NCC2CCC(C(c3ccc(F)cc3)N(C)C)CC2)cc1 (centres unmarked) [Example 345],76
9,COc1ccc(S(=O)(=O)N2CCCC2COCC(=O)NCCC2CCC(C(c3ccc(Cl)cc3)N(C)C)CC2)cc1 (centres unmarked) [Example 346],52
10,CN(C)C(c1ccc(Cl)cc1)C1CCC(CCNC(=O)COCCN(C)S(=O)(=O)c2ccc(Cl)cc2)CC1 (centres unmarked) [Example 347],85
11,COc1cc(C)c(S(=O)(=O)N(C)CCOCC(=O)NCC2CCC(C(c3ccc(Cl)cc3)N(C)C)CC2)c(C)c1 (centres unmarked) [Example 348],103
12,COc1ccc(S(=O)(=O)N2CCCCC2COCC(=O)NCCC2CCC(C(c3ccc(F)cc3)N(C)C)CC2)cc1 (centres unmarked) [Example 349],68
13,COc1ccc(S(=O)(=O)N2CCCCC2CCOCC(=O)NCC2CCC(C(c3ccc(F)cc3)N(C)C)CC2)cc1 (centres unmarked) [Example 350],57
14,COc1ccc(S(=O)(=O)N2CCCC2COCC(=O)NCC2CCC(C(c3ccc(Cl)cc3)N(C)C)CC2)cc1 (centres unmarked) [Example 351],52
15,COc1ccc(S(=O)(=O)N2CCCCC2COCC(=O)NC2CCC(C(c3cccc(F)c3)N(C)C)CC2)cc1OC (centres unmarked) [Example 352],−18
16,COc1cc(C)c(S(=O)(=O)N(C)CCOCC(=O)NCCC2CCC(C(c3ccc(F)cc3)N(C)C)CC2)c(C)c1C (centres unmarked) [Example 354],104
17,CN(C)C(c1cccc(F)c1)C1CCC(CNC(=O)COC2CCN(S(=O)(=O)c3ccccc3)C2)CC1 (centres unmarked) [Example 355],−7
18,CN(C)C(c1ccc(F)cc1)C1CCC(NC(=O)COCCN(C)S(=O)(=O)c2ccc(Cl)cc2Cl)CC1 (centres unmarked) [Example 356],92
19,CN(C)C(c1ccc(F)cc1)C1CCC(NC(=O)COCCN(C)S(=O)(=O)c2ccc(F)cc2)CC1 (centres unmarked) [Example 357],7
20,COc1cc(C)c(S(=O)(=O)N(CCOCC(=O)NCCC2CCC(C(c3cccc(F)c3)N(C)C)CC2)Cc2ccccc2)c(C)c1 (centres unmarked) [Example 358],66
21,CN(C)C(c1ccc(F)cc1)C1CCC(CNC(=O)COC2CCCCC2N(C)S(=O)(=O)c2ccc(Cl)c(Cl)c2)CC1 (centres unmarked) [Example 359],42
22,CN(C)C(c1ccc(F)cc1)C1CCC(NC(=O)COCCN(C)S(=O)(=O)c2ccc(OC(F)(F)F)cc2)CC1 (centres unmarked) [Example 361],3
23,Cc1ccc(S(=O)(=O)N(C)CCOCC(=O)NCC2CCC(C(c3ccc(F)cc3)N(C)C)CC2)cc1 (centres unmarked) [Example 362],7
